Experimental data: patent US20180252736A1, “CB2 RECEPTOR INTERNALIZATION” (Arena Pharmaceuticals, Inc., priority 2015, published 2018)
“And” between values parts separate entries of the source, which are not always exact repeats. Equal entries are not always repeated.

Columns and labels:
mouse CB2 receptor = biological target: T1, mouse CB2 receptor (Mus musculus, UniProt P47936); experiment: β-arrestin recruitment assay (PathHunter CHO-K1); format: cell-based; conditions: for β-arrestin efficacy, mouse CB2: relative to reference agonist
T1 construct: host or cells: PathHunter CHO-K1
T1 sequence (P47936 whole entry): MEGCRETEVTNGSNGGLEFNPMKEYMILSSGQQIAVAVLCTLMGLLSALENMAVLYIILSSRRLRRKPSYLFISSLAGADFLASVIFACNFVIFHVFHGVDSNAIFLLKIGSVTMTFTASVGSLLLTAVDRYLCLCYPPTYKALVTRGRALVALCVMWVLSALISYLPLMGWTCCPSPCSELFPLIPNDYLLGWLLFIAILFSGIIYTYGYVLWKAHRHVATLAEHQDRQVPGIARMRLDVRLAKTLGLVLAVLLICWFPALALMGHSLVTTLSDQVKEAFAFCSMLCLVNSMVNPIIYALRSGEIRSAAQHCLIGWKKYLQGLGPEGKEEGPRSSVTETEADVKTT

hCB2 [1] = biological target: T2, hCB2 (Homo sapiens, UniProt P34972); conditions: reported by Lilly; cited from earlier work
T2 sequence (P34972 whole entry): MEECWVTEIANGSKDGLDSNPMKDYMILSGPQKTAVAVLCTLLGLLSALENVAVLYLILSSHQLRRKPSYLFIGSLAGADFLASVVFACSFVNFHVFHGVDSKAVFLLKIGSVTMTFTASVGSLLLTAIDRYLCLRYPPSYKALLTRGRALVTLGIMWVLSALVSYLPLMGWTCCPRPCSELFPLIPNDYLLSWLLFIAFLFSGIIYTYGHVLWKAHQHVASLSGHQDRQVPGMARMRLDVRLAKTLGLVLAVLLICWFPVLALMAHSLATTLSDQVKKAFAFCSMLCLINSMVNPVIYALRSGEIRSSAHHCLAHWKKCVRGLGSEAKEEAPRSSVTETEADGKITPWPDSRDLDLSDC

CB1 [2] = biological target: T3, CB1 (Homo sapiens, UniProt P21554); conditions: at 100,000 nM; reported by Lilly; cited from earlier work
T3 sequence (P21554 whole entry): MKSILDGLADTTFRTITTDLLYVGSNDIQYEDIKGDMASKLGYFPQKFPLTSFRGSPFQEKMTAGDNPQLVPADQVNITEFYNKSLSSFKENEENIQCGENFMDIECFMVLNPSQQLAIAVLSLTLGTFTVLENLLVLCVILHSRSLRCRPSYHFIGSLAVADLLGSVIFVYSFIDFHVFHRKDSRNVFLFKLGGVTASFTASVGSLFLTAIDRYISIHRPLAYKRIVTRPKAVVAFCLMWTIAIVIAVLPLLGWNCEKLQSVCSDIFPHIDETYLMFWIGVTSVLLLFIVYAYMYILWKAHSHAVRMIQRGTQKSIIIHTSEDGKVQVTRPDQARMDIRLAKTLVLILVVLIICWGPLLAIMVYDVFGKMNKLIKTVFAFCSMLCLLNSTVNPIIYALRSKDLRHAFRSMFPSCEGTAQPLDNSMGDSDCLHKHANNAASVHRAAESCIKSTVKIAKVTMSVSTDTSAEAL

hCB2 [3] = biological target: T2, hCB2; experiment: β-arrestin recruitment assay (PathHunter CHO-K1); format: cell-based; design: host or cells: PathHunter CHO-K1; conditions: for β-arrestin efficacy compared to CP55,940, human CB2: relative to CP55,940
mouse CB1 receptor = mouse CB1 receptor (Mus musculus, UniProt P47746); experiment: β-arrestin recruitment assay (PathHunter CHO-K1); format: cell-based
Sequence of mouse CB1 receptor (P47746 whole entry): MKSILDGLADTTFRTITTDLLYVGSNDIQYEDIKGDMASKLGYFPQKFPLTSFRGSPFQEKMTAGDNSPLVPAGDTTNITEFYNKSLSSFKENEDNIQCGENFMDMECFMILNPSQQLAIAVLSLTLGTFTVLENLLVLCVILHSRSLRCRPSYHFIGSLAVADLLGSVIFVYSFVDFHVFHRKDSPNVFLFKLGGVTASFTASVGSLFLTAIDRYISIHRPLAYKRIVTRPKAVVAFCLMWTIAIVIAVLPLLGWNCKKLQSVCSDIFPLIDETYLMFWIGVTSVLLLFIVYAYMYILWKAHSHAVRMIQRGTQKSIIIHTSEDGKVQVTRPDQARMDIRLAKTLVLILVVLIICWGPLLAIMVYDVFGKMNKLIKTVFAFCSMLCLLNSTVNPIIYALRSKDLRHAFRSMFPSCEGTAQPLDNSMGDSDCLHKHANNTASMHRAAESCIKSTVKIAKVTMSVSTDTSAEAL

rat CB2 receptor [4] = biological target: T4, rat CB2 receptor (Rattus norvegicus, UniProt Q9QZN9); experiment: β-arrestin recruitment assay (PathHunter CHO-K1); format: cell-based; design: host or cells: PathHunter CHO-K1; conditions: for β-arrestin efficacy compared to CP55,940, rat CB2: relative to CP55,940
T4 sequence (Q9QZN9 1-360): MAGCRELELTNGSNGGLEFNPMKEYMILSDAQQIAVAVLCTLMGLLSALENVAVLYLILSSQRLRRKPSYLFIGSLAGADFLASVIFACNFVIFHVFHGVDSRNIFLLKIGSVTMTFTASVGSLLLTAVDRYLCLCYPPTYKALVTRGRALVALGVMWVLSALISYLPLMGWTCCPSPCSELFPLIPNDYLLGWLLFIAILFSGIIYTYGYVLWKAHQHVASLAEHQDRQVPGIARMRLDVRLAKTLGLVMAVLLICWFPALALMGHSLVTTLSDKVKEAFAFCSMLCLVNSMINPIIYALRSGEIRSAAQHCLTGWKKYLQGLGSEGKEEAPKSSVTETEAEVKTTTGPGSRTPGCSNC

rat CB1 receptor = rat CB1 receptor (Rattus norvegicus, UniProt P20272); experiment: β-arrestin recruitment assay (PathHunter CHO-K1); format: cell-based
Sequence of rat CB1 receptor (P20272 whole entry): as the sequence (P47746 whole entry) above, with D95E counted along it

CB1 [5] = biological target: T3, CB1; conditions: concentrations less than 30 μM; reported by GSK; cited from earlier work
[6] = system: MIA-induced osteoarthritis in male Sprague Dawley rats; experiment: Osteoarthritis pain model (MIA); format: in vivo, rat; conditions: for effect of CB1 antagonist on in vivo efficacy: pain model
Description: Injection of monosodium iodoacetate (MIA) into a joint (J Rheumatol 14:130-1, 1987) inhibits the activity of glyceraldehyde-3-phosphate dehydrogenase in chondrocytes, resulting in disruption of glycolysis and eventually in cell death. The progressive loss of chondrocytes results in histological and morphological changes of the articular cartilage, closely resembling those seen in osteoarthritis patients.
Osteoarthritis was induced in 200 g male Sprague Dawley rats. After brief anesthesia by isoflurane, rats received a single intra-articular injection of MIA (2 mg) (Catalog #19148, Sigma Aldrich, Saint Louis, Mo.) dissolved in 0.9% sterile saline in a 50 μL volume administered through the patella ligament into the joint space of the left knee with a 30 G needle. Following injection, animals were allowed to recover from anesthesia before being returned to the main housing vivarium.
Typically during disease progression, there is an inflammation period of 0-7 days post-intra-articular injection followed by progressive degeneration of the cartilage and subchondral bone from days 14-55. Efficacy studies with a compound described herein took place from day 14 onwards and were performed twice a week with at least three days of wash-out in between each assay. Three different assays can be used to measure pain. Tactile allodynia can be measured via von Frey assay, hind limb paw weight distribution can be monitored using an incapacitance tester (Columbus Instruments, Columbus, Ohio), and hind limb grip strength can be measured using a grip strength meter (Columbus Instruments, Columbus, Ohio). Briefly, the von Frey assay was performed using the standard up/down method with von Frey filaments. Hind paw weight distribution was determined by placing rats in a chamber so that each hind paw rested on a separate force plate of the incapacitance tester. The force exerted by each hind limb (measured in grams) was averaged over a three second period. Three measurements are taken for each rat, and the change in hind paw weight distribution was calculated. Peak hind limb grip force was conducted by recoding the maximum compressive force exerted on the hind limb mesh gauge set on the grip strength meter. During testing, each rat was restrained and the paw of the injected knee was allowed to grip the mesh. The animal was then pulled in an upward motion until their grip was broken. Each rat was tested three times, with the contralateral paw used as a control.
A baseline was established for animals prior to administration of compounds. The MIA-treated groups of rats were then dosed with either vehicle (PEG400, orally), test compound (at 3 mg/kg, 10 mg/kg, and 30 mg/kg, orally), or morphine (3 mg/kg, subcutaneously). The dosing volume was 500 μL. One hour after dosing, von Frey assay, hind limb weight distribution and/or hind limb grip analysis was performed to measure the efficacy of the test compounds.

CB1 [7] = biological target: T3, CB1; experiment: β-arrestin recruitment assay (PathHunter CHO-K1); format: cell-based
hCB2 [8] = biological target: T2, hCB2; experiment: CB2 receptor internalization assay (enzyme complementation); format: cell-based; conditions: for receptor internalization, human CB2 (words): relative to CP55,940
Description: (§1) Receptor internalization assays for the CB2 receptor were performed using the PathHunter® Total GPCR Internalization system from DiscoverRx (Fremont, Calif.). The assay was performed in CB2-receptor-expressing stable cell lines generated in the PathHunter® U2OS parental cell line.
(§2) Total GPCR internalization assays were performed per the manufacturer's instructions. Briefly, PathHunter® U2OS cells stably expressing the recombinant human or rat CB2 receptor were seeded into 96-well microtiter assay plates (Catalog #3610, Corning Inc., Corning, N.Y.) at a density of 20,000 cells per well in 100 μL growth medium and cultured in a humidified 37° C. incubator overnight. Growth medium was exchanged the following day for 100 μL serum-free medium (OptiMEM), and cells were incubated overnight in a humidified 37° C. incubator. On the day of the assay, test compounds dissolved in DMSO were serially diluted in DMSO and then further diluted in OptiMEM to achieve 11× concentrations in 5.5% DMSO. Aliquots (10 μL) of diluted test compounds were added to the assay plates, which were then incubated in a humidified 37° C. incubator for 3 hours. Lysis/detection reagents (55 μL total) were then added and the plates were incubated for an additional 1 hour at room temperature. Plates were then read on an appropriate plate reader (e.g., EnVision (Perkin Elmer, Waltham, Mass.) or PheraStar (BMG)). Dose-response curves were generated using a minimum of 8 different test concentrations and triplicate determinations were made at each test concentration. Assay performance was monitored by inclusion of a standard CB2 reference agonist such as CP55,940 and agonist internalization efficacies were reported relative to that of the reference agonist.

[9] = system: human CB2 receptor versus human CB1 receptor; experiment: CB2 receptor selectivity (ratio of EC50 values, β-arrestin data); format: cell-based
Description: Competition curves were fit to a nonlinear least squares curve fitting program to obtain EC50 values for the β-arrestin data. Selectivity for the CB2 receptor versus the CB1 receptor was obtained by dividing the […].

rat CB2 receptor [10] = biological target: T4, rat CB2 receptor; experiment: CB2 receptor internalization assay (enzyme complementation); format: cell-based; conditions: relative to CP55,940
Description: as §1, §2

hCB2 [11] = biological target: T2, hCB2; conditions: reported by Glenmark, cited from earlier work

Structure (SMILES)	β-arrestin efficacy compared to CP55,940, human CB2 (hCB2 [3])	EC50 (rat CB1 receptor)	EC50 (mouse CB2 receptor)	β-arrestin efficacy, mouse CB2 (mouse CB2 receptor)	EC50 (CB1 [7])	EC50 (hCB2 [3])	EC50 (mouse CB1 receptor)	receptor internalization, human CB2 (words) (hCB2 [8])	EC50 (rat CB2 receptor [4])	β-arrestin efficacy compared to CP55,940, rat CB2 (rat CB2 receptor [4])	also measured
Cc1nc(N2CCN(C)CC2)c2nc(-c3ccccc3Cl)n(C3CCOCC3)c2n1 [LY2828360]	41%	–	–	–	–	–	–	–	–	–	IC50 (mouse CB2 receptor; antagonist activity, read-out: β-arrestin potency, mouse CB2 (* indicates antagonist activity)): 56 nM; GTPγS35 stimulation in vitro efficacy, hCB2 (hCB2 [1]): 87% and 87 ± 2%; GTPγS35 stimulation efficacy, hCB1 (CB1 [2]): 15 ± 7% at 100,000 nM; IC50 (mouse CB1 receptor; antagonist activity, read-out: β-arrestin potency, mouse CB1 (* indicates antagonist activity)): 1000 nM; agonist activity in β-arrestin assay, rat CB2 (rat CB2 receptor [4]; compared to CP55,940): absence of agonist activity
O=C(NCC1CCOCC1)c1cnc(Nc2ccc(Cl)cc2Cl)nc1C(F)(F)F [GW842166X]	99%	> 10000 nM	235 nM	108%	> 10000 nM	840 nM	> 10000 nM	weak receptor internalization	427 nM	97%	CB1 activity (CB1 [5]): absence of CB1 activity; in vivo efficacy over time in the osteoarthritis pain model ([6]; oral dosing): limited efficacy; effect of CB1 antagonist on in vivo efficacy [6]: blocked by CB1 antagonists; effect of CB1 antagonist on in vivo efficacy ([6]; listed as GW842166): blocked by a CB1 antagonist; total granule intensity compared to CP55,940, human CB2 receptor internalization (hCB2 [8]): 53%; receptor internalization, human CB2 (words) (hCB2 [8]; listed as GW842166): weak CB2 receptor internalization
CC(C)(C)NC(=O)c1nn(-c2ccc(F)cc2F)c2c1C1CCC2C1 (stereo not drawn) [GRC 10693]	100%	290 nM	0.8 nM	96%	384 nM	1.2 nM	750 nM	high efficacy	2 nM	89%	β-arrestin efficacy, rat CB1 (rat CB1 receptor; relative to reference agonist): 57%; β-arrestin efficacy, human CB1 (CB1 [7]; relative to reference agonist): 57%; selectivity for the human CB2 receptor versus the human CB1 receptor [9]: 320 fold; β-arrestin efficacy, mouse CB1 (mouse CB1 receptor; relative to reference agonist): 75%; receptor internalization, rat CB2 (rat CB2 receptor [10]): high efficacy; selectivity compared to the CB1 receptor using cAMP assays (hCB2 [11]): greater than 4700 fold; IC50 (hCB2 [11]; read-out: functional IC50 for the human CB2 receptor): 2.1 nM
